Assays:
Apis mellifera = conditions: acute, duration: 48 hours, mortality
Bibionidae = conditions: chronic/long-term; duration: 28 days; development
Canidae = conditions: oral, Dog Other, organ weight
Colinus virginianus = conditions: reproduction developmental
Coturnix japonica = conditions: acute, oral
Daphnia magna = conditions: chronic/long-term; duration: 21 days
Lepomis macrochirus = conditions: acute; duration: 96 hours; mortality
Menidia beryllina = conditions: acute; duration: 96 hours; mortality
Mus musculus = conditions: acute; oral; mortality
Oncorhynchus mykiss = conditions: mortality
Palaemonetes pugio = conditions: acute; duration: 96 hours; mortality
Rattus norvegicus = conditions: chronic
Aphidius rhopalosiphi = test: LR50; higher = less toxic; conditions: acute; duration: 48 hours; mortality
Typhlodromus pyri = test: LR50; higher = less toxic; conditions: chronic/long-term; duration: 7 days; mortality

For `COc1ncc(F)c2nc(S(=O)(=O)Nc3c(F)cccc3F)nn12` [Florasulam], the LD50 (Apis mellifera; dermal) was greater than 100 µg/piece, the LD50 (Apis mellifera; oral, unspecified) was greater than 100 µg/piece and the NOEC (Bibionidae) was 10 mg/L. The NOAEL (Canidae; chronic, duration: 1 years) was 5 mg/kg-day, the NOAEL (Canidae; subchronic, duration: 90 days) was 5 mg/kg-day and the NOAEL (Colinus virginianus) was 1500 mg/kg-day. For the same compound, the LC50 (Coturnix japonica; diet) was greater than 938 mg/kg-day, the LD50 (Coturnix japonica; mortality) was 1050 mg/kg-day and the NOEC (Daphnia magna) was 23.4 mg/L. For the same compound, the LC50 (Lepomis macrochirus) was greater than 100 µg/mL, the LC50 (Menidia beryllina) was greater than 122 µg/mL and the LD50 (Mus musculus) was greater than 5000 mg/kg-day. The LC50 (Oncorhynchus mykiss; acute, duration: 96 hours) was greater than 100 µg/mL, the NOEC (Oncorhynchus mykiss; chronic/long-term, duration: 28 days) was 119 mg/L and the LC50 (Palaemonetes pugio) was greater than 120 µg/mL. For the same compound, the NOAEL (Rattus norvegicus) was greater than 100 mg/kg-day, the LC50 (Tagia sp.; acute, duration: 14 days, mortality) was greater than 1320 mg/kg and the NOEC (Tagia sp.; chronic/long-term) was 0.203 mg/kg. It also gave an LR50 (Aphidius rhopalosiphi) greater than 15 g/ha and an LR50 (Typhlodromus pyri) greater than 15 g/ha.

From EPA's ToxValDB 9.5 (doi:10.2903/j.efsa.2015.3984)
